Results on six compounds are retold here after BindingDB's records for doi:10.1021/acs.jmedchem.0c00435 (University of Bonn, 2020).

Usually IC50 stands for the concentration that inhibits the measured activity by half.

The structures appear in SMILES notation. Some results are limits rather than exact numbers.

Assay [1] is described as follows: Antagonist activity P2X1 receptor in Apyrase pre-treated human platelets assessed as inhibition of TRAP6-induced platelet aggregation pre-incubated for 30 mins before TRAP6 stimulation by aggregometry.
The nature of assay [2]: Antagonist activity P2X1 receptor in human platelets assessed as inhibition of ADP-induced platelet aggregation pre-incubated for 30 mins before ADP stimulation by aggregometry.
The nature of assay [3]: Antagonist activity P2X1 receptor in Apyrase pre-treated human platelets assessed as inhibition of collagen-induced platelet aggregation pre-incubated for 30 mins before collagen stimulation by aggregometry.

Consider `O=C(Nc1cc(F)cc(F)c1)c1cc(Cl)ccc1O`, for which the IC50 was above 10 µM in assay [1] and above 20 µM in assay [2].

Regarding `O=S(=O)(Nc1cc(C(F)(F)F)cc(C(F)(F)F)c1)c1cc(Cl)ccc1O`, the 50% inhibitory concentration (IC50) in assay [1] was above 10 µM; in assay [2] it was above 20 µM; in assay [3] it was 3.13 µM.

Turning to `O=C(Nc1cc(Cl)cc(Cl)c1)c1cc(Cl)ccc1O`, the IC50 in assay [1] is above 10 µM; in assay [2], above 20 µM; in assay [3], 3.03 µM.

As for `O=C(Nc1cc(C(F)(F)F)cc(C(F)(F)F)c1)c1ccc(Cl)cc1O`, the IC50 was determined as 4.8 µM in assay [1], 5.47 µM in assay [2] and 1.14 µM in assay [3].

For `O=C(Nc1cc(C(F)(F)F)cc(C(F)(F)F)c1)c1ccccc1` [N-(3,5-Bis(Trifluoromethyl)Phenyl)Benzamide], the half-maximal inhibitory concentration (IC50) in assay [1] stood at 5.57 µM; in assay [3] it was 2.1 µM.

For `O=C(Nc1cc(C(F)(F)F)cc(C(F)(F)F)c1)c1cc(Cl)ccc1O` [TCMDC-125465], the IC50 was 3.64 µM in assay [1], 4.73 µM in assay [2] and 0.57 µM in assay [3].
